From patent US20100248377A1, “DETECTION OF CONTRAST MEDIUM-INDUCED NEPHROTOXICITY” (priority 2007, published 2010)

Columns and labels:
Assay type in all cases: in vivo, human
L-FABP (urine) [1] = test: Dose response analysis, L-FABP in urine of PCTA patients after contrast medium; conditions: for L-FABP Changes: 24 h vs 0 h; for 24 h L-FABP: urine
Method: (§1) The effect of the administration of various amounts of the contrast medium Iobitridol (Xenetix, Xen 350) on the level of creatinine, urotensin II, total adiponectin and L-FABP in urine samples obtained from subjects which underwent percutaneous transluminal coronary angioplasty (PCTA) was analysed. All six patients examined in this study had no apparent renal disorder indicated by a serum creatinine level of less than 1.2 mg/dl (before PCTA). Each patient received a different amount of the contrast medium (50 ml, 80 ml, 100 ml, 150 ml, 220 ml and 350 ml, respectively). The urinary levels of creatinine, urotensin II, total adiponectin and L-FABP were determined in samples that were obtained prior to the administration of different volumes of the contrast medium (time point 0) and 24 h after the administration of the contrast medium. […] The results are normalized to the urinary creatinine concentration. From the data it clearly can be seen that a high dose of an administered contrast medium leads to a significant increase of adiponectin and L-FABP.

L-FABP (urine) [2] = test: Example 3 case, coronary angiography, urine L-FABP; conditions: person, 350 ml, 24 hours after administration; before 7
Method: (§2) In order to examine whether the chest pain is caused by a coronary artery disease, a coronary angiography is initiated. A serum sample is obtained from the patient prior to the angiography and the amount of creatinine is determined in a serum sample (0.9 mg/dl). Moreover, in a urine sample HMW adiponectin, urotensin II and L-FABP are determined (adiponectin 0.92 μg/g Creatinine; L-FABP 7 μg/g Creatinine; Urotensin II: 1.2 μg/g Creatinine).
(§3) For coronary angiography 350 ml Xen350 are administered to the patient as a contrast medium. After successful coronary angiography, the patient is monitored for 24 hours. Moreover, creatinine (serum level: 1 mg/dl), adiponectin, L-FABP and urotensin II are determined again after 24 hours after the administration of the contrast medium (urine level: adiponectin 1.55 μg/g Creatinine; L-FABP 21 μg/g Creatinine; Urotensin II: 6 μg/g Creatinine).

HMW adiponectin (urine) = test: Example 3 case, coronary angiography, urine HMW adiponectin; conditions: person, 350 ml, 24 hours after administration; before 0.92
Method: as §2, §3

urotensin II (urine) [3] = test: Example 3 case, coronary angiography, urine urotensin II; conditions: person, 350 ml, 24 hours after administration; before 1.2
Method: as §2, §3

[4] = test system: total adiponectin (urine); test: Example 2 study, 20 PCTA subjects, urine total adiponectin after contrast medium; conditions: n = 20, t = 0 h value 0.66
Method: (§4) In a different study, the effect of the administration of the contrast medium lobitridol (Xenetix, Xen 350) on the urine level of creatinine, urotensin II, total adiponectin and L-FABP in samples obtained from 20 subjects which underwent percutaneous transluminal coronary angioplasty (PCTA) was analyzed. Samples were obtained prior to the administration of the contrast medium (t=0 h), four hours after administration of the contrast medium (t=4 h), as well as 24 hours after administration of the contrast medium.

creatinine (urine) [5] = test: Dose response analysis, creatinine in urine of PCTA patients after contrast medium; conditions: 24 h after vs before administration; six patients, 50-350 ml
Method: as §1

creatinine (urine) [6] = test: Example 2 study, 20 PCTA subjects, urine creatinine after contrast medium; conditions: n = 20, t = 0 h value 0.75
Method: as §4

L-FABP (urine) [7] = test: Example 2 study, 20 PCTA subjects, urine L-FABP after contrast medium; conditions: for L-FABP, median: urine, n = 20, t = 0 h value 13.44
Method: as §4

urotensin II (urine) [8] = test: Example 2 study, 20 PCTA subjects, urine urotensin II after contrast medium; conditions: for Urotensin II, median: urine, n = 20, t = 0 h value 1.18
Method: as §4

[9] = test system: total adiponectin (urine); test: Dose response analysis, total adiponectin in urine of PCTA patients after contrast medium; conditions: for Adiponectin Changes: 24 h vs 0 h; for 24 h Adiponectin: urine
Method: as §1

urotensin II (urine) [10] = test: Dose response analysis, urotensin II in urine of PCTA patients after contrast medium; conditions: 24 h after vs before administration; six patients, 50-350 ml
Method: as §1

serum creatinine = test: Example 3 case, coronary angiography, serum creatinine and renal outcome; conditions: person, 350 ml
Method: as §2, §3

[11] = 24 h after vs before administration, six patients, 50-350 ml

**Q.** With CN(CC(O)CO)C(=O)c1c(I)c(NC(=O)C(CO)CO)c(I)c(C(=O)N(C)CC(O)CO)c1I (centres unmarked) [Xen350, Iobitridol] as the compound, how does the “increase of median L-FABP in urine” value (L-FABP (urine) [1]; [11]) read?
**A.** 415%

**Q.** What about the “L-FABP Changes” value (L-FABP (urine) [1]; Patient 1, 50 ml) of the same compound?
**A.** −45%

**Q.** What about the “24 h L-FABP” value (L-FABP (urine) [1]; Patient 1, 50 ml, 0 h value 20.19) of the same compound?
**A.** 11.17 ug/g Crea

**Q.** And the “L-FABP Changes” value (L-FABP (urine) [1]; Patient 2, 80 ml)?
**A.** 49%

**Q.** What about the “24 h L-FABP” value (L-FABP (urine) [1]; Patient 2, 80 ml, 0 h value 42.71) of the same compound?
**A.** 63.48 ug/g Crea

**Q.** What about the “L-FABP Changes” value (L-FABP (urine) [1]; Patient 3, 100 ml) of the same compound?
**A.** 40%

**Q.** And the “24 h L-FABP” value (L-FABP (urine) [1]; Patient 3, 100 ml, 0 h value 13.77)?
**A.** 19.33 ug/g Crea

**Q.** What about the “L-FABP Changes” value (L-FABP (urine) [1]; Patient 4, 150 ml) of the same compound?
**A.** 481%

**Q.** What about the “24 h L-FABP” value (L-FABP (urine) [1]; Patient 4, 150 ml, 0 h value 6.8) of the same compound?
**A.** 32.74 ug/g Crea

**Q.** And the “L-FABP Changes” value (L-FABP (urine) [1]; Patient 5, 220 ml)?
**A.** 544%

**Q.** And the “24 h L-FABP” value (L-FABP (urine) [1]; Patient 5, 220 ml, 0 h value 13.1)?
**A.** 71.23 ug/g Crea

**Q.** And the “L-FABP Changes” value (L-FABP (urine) [1]; Patient 6, 350 ml)?
**A.** 406%

**Q.** And the “24 h L-FABP” value (L-FABP (urine) [1]; Patient 6, 350 ml, 0 h value 4.36)?
**A.** 17.71 ug/g Crea

**Q.** What about the L-FABP urine level (L-FABP (urine) [2]) of the same compound?
**A.** 21 μg/g Creatinine

**Q.** And the adiponectin urine level (HMW adiponectin (urine))?
**A.** 1.55 μg/g Creatinine

**Q.** What about the “Urotensin II urine level” value (urotensin II (urine) [3]) of the same compound?
**A.** 6 μg/g Creatinine

**Q.** And the “Adiponectin, median” value ([4]; t = 4 h)?
**A.** 0.89 μg/g Creatinine

**Q.** What about the “Adiponectin, median” value ([4]; t = 24 h) of the same compound?
**A.** 1.09 μg/g Creatinine

**Q.** What about the “increase of median creatinine in urine” value (creatinine (urine) [5]) of the same compound?
**A.** 41%

**Q.** What about the “Creatinine, median” value (creatinine (urine) [6]; t = 4 h) of the same compound?
**A.** 0.45 g/L

**Q.** What about the “Creatinine, median” value (creatinine (urine) [6]; t = 24 h) of the same compound?
**A.** 1.05 g/L

**Q.** And the L-FABP (L-FABP (urine) [7]; Table 3 Patient 1, t = 4 h, t = 0 h value 12)?
**A.** 6 μg/g Creatinine

**Q.** And the L-FABP (L-FABP (urine) [7]; Table 3 Patient 1, t = 24 h, t = 0 h value 12)?
**A.** 26 μg/g Creatinine

**Q.** And the L-FABP (L-FABP (urine) [7]; Table 3 Patient 2, t = 4 h, t = 0 h value 5)?
**A.** 6 μg/g Creatinine

**Q.** What about the L-FABP (L-FABP (urine) [7]; Table 3 Patient 2, t = 24 h, t = 0 h value 5) of the same compound?
**A.** 33 μg/g Creatinine

**Q.** What about the “L-FABP, median” value (L-FABP (urine) [7]; t = 4 h) of the same compound?
**A.** 12.16 μg/g Creatinine

**Q.** And the “L-FABP, median” value (L-FABP (urine) [7]; t = 24 h)?
**A.** 26.03 μg/g Creatinine

**Q.** And the “Urotensin II” value (urotensin II (urine) [8]; Table 3 Patient 1, t = 4 h, t = 0 h value 832)?
**A.** 999 pg/mL

**Q.** What about the “Urotensin II” value (urotensin II (urine) [8]; Table 3 Patient 1, t = 24 h, t = 0 h value 832) of the same compound?
**A.** 2591 pg/mL

**Q.** And the “Urotensin II” value (urotensin II (urine) [8]; Table 3 Patient 2, t = 4 h, t = 0 h value 1043)?
**A.** 1131 pg/mL

**Q.** And the “Urotensin II” value (urotensin II (urine) [8]; Table 3 Patient 2, t = 24 h, t = 0 h value 1043)?
**A.** 39441 pg/mL

**Q.** And the “Urotensin II, median” value (urotensin II (urine) [8]; t = 4 h)?
**A.** 1.23 μg/g Creatinine

**Q.** What about the “Urotensin II, median” value (urotensin II (urine) [8]; t = 24 h) of the same compound?
**A.** 1.77 μg/g Creatinine

**Q.** What about the “increase of median adiponectin in urine” value [9, 11] of the same compound?
**A.** 400%

**Q.** And the “Adiponectin Changes” value ([9]; Patient 1, 50 ml)?
**A.** −88%

**Q.** What about the “24 h Adiponectin” value ([9]; Patient 1, 50 ml, 0 h value 0.92) of the same compound?
**A.** 0.11 ug/g Crea

**Q.** What about the “Adiponectin Changes” value ([9]; Patient 2, 80 ml) of the same compound?
**A.** −22%

**Q.** And the “24 h Adiponectin” value ([9]; Patient 2, 80 ml, 0 h value 2.99)?
**A.** 2.34 ug/g Crea

**Q.** And the “Adiponectin Changes” value ([9]; Patient 3, 100 ml)?
**A.** −44%

**Q.** What about the “24 h Adiponectin” value ([9]; Patient 3, 100 ml, 0 h value 2.68) of the same compound?
**A.** 1.49 ug/g Crea

**Q.** What about the “Adiponectin Changes” value ([9]; Patient 4, 150 ml) of the same compound?
**A.** −91%

**Q.** What about the “24 h Adiponectin” value ([9]; Patient 4, 150 ml, 0 h value 0.32) of the same compound?
**A.** 0.03 ug/g Crea

**Q.** And the “Adiponectin Changes” value ([9]; Patient 5, 220 ml)?
**A.** 897%

**Q.** What about the “24 h Adiponectin” value ([9]; Patient 5, 220 ml, 0 h value 0.41) of the same compound?
**A.** 3.68 ug/g Crea

**Q.** What about the “Adiponectin Changes” value ([9]; Patient 6, 350 ml) of the same compound?
**A.** 690%

**Q.** What about the “24 h Adiponectin” value ([9]; Patient 6, 350 ml, 0 h value 0.1) of the same compound?
**A.** 0.69 ug/g Crea

**Q.** And the “increase of median urotensin II in urine” value (urotensin II (urine) [10])?
**A.** 350%

**Q.** And the creatinine serum level (serum creatinine; 24 hours after administration, before 0.9)?
**A.** 1 mg/dL

**Q.** What about the serum creatinine level (serum creatinine; after two more days (after the 24 h monitoring)) of the same compound?
**A.** 2.5 mg/dL

**Q.** What about the renal outcome diagnosed (serum creatinine; after two more days, significantly reduced urine excretion) of the same compound?
**A.** acute renal failure
